The source made the active and inactive calls. The calls are words filed in the database; no cut-off is given here.
Experiments:
[1] = system: Schistosoma mansoni; assay: AntiSchistosoma mansoni activity Juveniles IC50 (uM); type: functional, organism-based
[2] = system: Schistosoma mansoni; assay: AntiSchistosoma mansoni activity Adults IC50 (uM); type: functional, organism-based
[3] = system: HepG2; assay: Cytotoxicity data HepG2 CC20 (uM); type: functional
[4] = system: Schistosoma mansoni; assay: AntiSchistosoma mansoni activity Newly Transformed Schistosomula: inhibition at 10 uM at 72h (%); type: functional
[5] = system: Schistosoma mansoni; assay: AntiSchistosoma mansoni activity Adults: Effect at 10 uM after 48h; type: functional, organism-based
[6] = system: Schistosoma mansoni; assay: AntiSchistosoma mansoni activity Newly Transformed Schistosomula: IC50 at 72h (uM); type: functional, organism-based
[7] = system: MRC5; assay: MRC5 CC50 (uM) Cytotoxicity; type: functional; conditions: Homo sapiens
[8] = system: Brugia pahangi; assay: AntiBrugia pahangi activity Average inhibition motility at 10 uM (%); type: functional
[9] = system: Onchocerca lienalis; assay: AntiOnchocerca activity O. lienalis microfilariae Motility reduction (%); type: functional; parameters: concentration or dose not given beside the values
[10] = system: Onchocerca ochengi; assay: AntiOnchocerca activity O. ochengi adult females: final mean inhibition motility at 10 uM on Day 7 (%); type: functional
[11] = system: Onchocerca ochengi; assay: AntiOnchocerca activity O. ochengi adult males: final mean inhibition motility at 10 uM on Day 5 (%); type: functional
[12] = system: Onchocerca gutturosa; assay: AntiOnchocerca activity O. gutturosa adult males: MTT reduction at 12.5 uM (%); type: functional; parameters: scale not given: the % may be the effect or the level left
[13] = system: Onchocerca gutturosa; assay: AntiOnchocerca activity O. gutturosa adult males: Motility reduction at 12.5 uM (%); type: functional; parameters: scale not given: the % may be the effect or the level left
[14] = system: Onchocerca volvulus; assay: AntiOnchocerca activity O. volvulus L3 Molting assay: inhibition at 10 uM (%); type: functional
[15] = HL60 CC50 (uM) Cytotoxicity; type: functional; conditions: HL-60
[16] = system: L6; assay: L6 CC50 (uM) Cytotoxicity; type: functional; conditions: Rattus norvegicus
[17] = system: Leishmania infantum; assay: AntiLeishmania activity L. infantum (macrophages) IC50 (uM); type: functional, organism-based
[18] = system: Trypanosoma brucei; assay: AntiTrypanosoma brucei activity T. b. rhodesiense IC50 (uM); type: functional, organism-based
[19] = system: Leishmania major; assay: AntiLeishmania activity L. major IC50 (uM); type: functional, organism-based
[20] = system: Leishmania; assay: AntiLeishmania activity Toxicity on infected PMM (uM); type: functional
[21] = system: Leishmania donovani; assay: AntiLeishmania activity L. donovani (axenic) IC50 (uM); type: functional, organism-based
[22] = system: Trypanosoma cruzi; assay: AntiTrypanosoma cruzi activity IC50 (uM); type: functional, organism-based
[23] = system: Trypanosoma brucei; assay: AntiTrypanosoma brucei activity T. b. brucei IC50 (uM); type: functional, organism-based
[24] = system: Leishmania donovani; assay: AntiLeishmania activity L. donovani (macrophages) IC50 (uM); type: functional, organism-based
[25] = PMM CC50 (uM) Cytotoxicity; type: functional; conditions: Macrophage
[26] = system: Toxoplasma gondii; assay: AntiToxoplasma gondii activity data Inhibition of plaque forming efficiency (%) Experiment B; type: functional; parameters: concentration or dose not given beside the values
[27] = system: Toxoplasma gondii; assay: AntiToxoplasma gondii activity data 2-day killing assay: IC50 (uM), Experiment G; type: functional, organism-based
[28] = system: Toxoplasma gondii; assay: AntiToxoplasma gondii activity data 2-day killing assay: inhibition at 10 uM (%) Experiment E; type: functional
[29] = system: Toxoplasma gondii; assay: AntiToxoplasma gondii activity data Inhibition of plaque forming efficiency (%) Experiment A; type: functional; parameters: concentration or dose not given beside the values
[30] = system: Toxoplasma gondii; assay: AntiToxoplasma gondii activity data 2-day killing assay: IC50 (uM), Experiment F; type: functional, organism-based
[31] = system: Toxoplasma gondii; assay: AntiToxoplasma gondii activity data 2-day killing assay: inhibition at 10 uM (%) Experiment C; type: functional; conditions: 48 h
[32] = system: Toxoplasma gondii; assay: AntiToxoplasma gondii activity data 2-day killing assay: inhibition at 10 uM (%) Experiment D; type: functional
[33] = system: Schistosoma mansoni; assay: AntiSchistosoma mansoni activity Larva IC50 (uM); type: functional, organism-based

Q: Which IC50 [1] does the source give for Cc1nn(C(=O)Nc2cccc(C(F)(F)F)c2)c(C)c1Sc1ncccn1 here?
A: 4.05 µM

Q: And the IC50 [2]?
A: 2 µM

Q: What about the CC20 [3] of the same molecule?
A: 30.7 µM

Q: And the Inhibition [4]?
A: 33.3%

Q: What about the Activity [5] of the same molecule?
A: Active

Q: For Cc1[nH]c2ccccc2c1C(c1cccs1)N1CCN(C)CC1 (stereo not given), which IC50 [6] is on record?
A: 0.29 µM

Q: And the IC50 [1]?
A: 3.8 µM

Q: What about the IC50 [2] of the same molecule?
A: 7.2 µM

Q: What about the CC20 [3] of the same molecule?
A: 8.46 µM

Q: And the Inhibition [4]?
A: 100%

Q: And the CC50 [7]?
A: > 20 µM

Q: Which results are given for COC(=O)c1c(NC(=O)c2cc3ccccc3oc2=O)sc2c1CCN(Cc1ccccc1)C2?
A: Inhibition [8]: 10%; Activity [9]: 33.3%; Inhibition [10]: 8%; Inhibition [11]: 0%; Activity [12]: 0%; Activity [13]: 21.4%; CC20 [3]: 12.3 µM; Inhibition [14]: 100%; CC50 [15]: > 50 µM

Q: With CC(C)(C)OC(=O)N1CCN(c2cc(-c3ccc(Oc4ccccc4)cc3)n[nH]2)CC1 as the molecule, how does the CC50 [16] read?
A: 4.8 µM

Q: And the IC50 [17]?
A: 10.2 µM

Q: What about the IC50 [18] of the same molecule?
A: 2.7 µM

Q: What about the IC50 [19] of the same molecule?
A: 13 µM

Q: What about the “Toxicity on infected macrophages” value [20] of the same molecule?
A: 20 µM

Q: What about the IC50 [21] of the same molecule?
A: 1.32 µM

Q: And the CC20 [3]?
A: 4.03 µM

Q: And the CC50 [7]?
A: > 32 µM

Q: What about the IC50 [22] of the same molecule?
A: 9.37 µM

Q: And the IC50 [23]?
A: 3.89 µM

Q: And the IC50 [24]?
A: > 10 µM

Q: And the CC50 [25]?
A: 16 µM

Q: Which Inhibition [26] does the source give for CS(=O)(=O)N1CCC(CCn2nc(Cc3cccc4ccccc34)c3c(N)ncnc32)CC1 here?
A: 100%

Q: What about the IC50 [27] of the same molecule?
A: no inhibition

Q: What about the Inhibition [28] of the same molecule?
A: 20.6%

Q: And the Inhibition [29]?
A: 100%

Q: And the IC50 [30]?
A: no inhibition

Q: And the inhibition at 10 µM [31]?
A: 0%

Q: What about the CC50 [15] of the same molecule?
A: > 50 µM

Q: And the Inhibition [32]?
A: 63.9%

Q: What does the source list for O=C(CN1CCOCC1)Nc1ccc2ncnc(Nc3ccc(OCc4cccc(F)c4)c(Cl)c3)c2c1?
A: IC50 [17]: > 32 µM; IC50 [18]: 3.07 µM; IC50 [19]: 12.4 µM; CC20 [3]: 10.9 µM; CC50 [7]: 6.4 µM; IC50 [22]: 0.95 µM; IC50 [23]: 5.31 µM; CC50 [25]: > 32 µM

Q: What does the source list for Cc1ncc(-c2ccnc(Nc3ccc(S(C)(=O)=O)cc3)n2)n1C(C)C [AZD-5438]?
A: IC50 [17]: 1.15 µM; IC50 [18]: < 0.13 µM; IC50 [19]: 3.15 µM; CC20 [3]: 0.18 µM; CC50 [7]: 1 µM; IC50 [22]: 1.08 µM; IC50 [23]: 0.26 µM; CC50 [25]: 4 µM

Q: With c1ccc(-c2[nH]c3ccccc3c2C(c2ccccn2)N2CCCC2)cc1 (stereo not given) as the molecule, how does the IC50 [6] read?
A: 0.51 µM

Q: And the IC50 [1]?
A: 2.5 µM

Q: And the IC50 [2]?
A: 3.2 µM

Q: And the CC20 [3]?
A: 1 µM

Q: And the Inhibition [4]?
A: 100%

Q: What about the CC50 [7] of the same molecule?
A: 86 µM

Q: What about the IC50 [33] of the same molecule?
A: 0.5 µM

Q: For COc1ccc(N(CCc2cccc(C)n2)C(C)=O)cc1, which Inhibition [8] is on record?
A: 6%

Q: What about the Activity [9] of the same molecule?
A: 13.3%

Q: What about the Inhibition [10] of the same molecule?
A: 0%

Q: What about the Inhibition [11] of the same molecule?
A: 6%

Q: What about the Activity [12] of the same molecule?
A: 29.6%

Q: And the Activity [13]?
A: 35.7%

Q: What about the CC20 [3] of the same molecule?
A: >80 µM

Q: What about the Inhibition [14] of the same molecule?
A: 88%

Q: And the CC50 [15]?
A: > 50 µM

Q: Which IC50 [6] does the source give for Cn1ncc2c(N3CCOCC3)nc(NCCc3c[nH]c4ccccc34)nc21 [TDR79432] here?
A: 0.43 µM

Q: And the CC20 [3]?
A: 4.63 µM

Q: What about the Inhibition [4] of the same molecule?
A: 88%

Q: What about the Activity [5] of the same molecule?
A: Active

Q: Which IC50 [6] does the source give for COc1ccc(-c2nnc3ccc(-c4cccc(C(C)C)c4)cn23)cc1OC here?
A: 5.69 µM

Q: And the IC50 [1]?
A: 4 µM

Q: What about the IC50 [2] of the same molecule?
A: 1.6 µM

Q: And the CC20 [3]?
A: 7.5 µM

Q: What about the Inhibition [4] of the same molecule?
A: 79%

Q: And the CC50 [7]?
A: 18.6 µM

Q: What about the Activity [5] of the same molecule?
A: Active

Q: And the IC50 [33]?
A: 6.6 µM

Q: What does the source list for CN1CCN(S(=O)(=O)c2ccc(-c3ccc4c(Nc5ncc(Cl)cn5)ccnc4c3)cc2)CC1?
A: IC50 [17]: 2.54 µM; IC50 [18]: 0.96 µM; IC50 [19]: 8.51 µM; CC20 [3]: 8 µM; CC50 [7]: > 32 µM; IC50 [22]: 3.81 µM; IC50 [23]: 3.78 µM; CC50 [25]: 4 µM

Q: Which results are given for COc1ccc(-c2cnc3cnc(-c4cccc(OC(C)C)c4)cn23)cc1?
A: IC50 [6]: 1.18 µM; IC50 [1]: 5.7 µM; IC50 [2]: 4.9 µM; CC20 [3]: 24.3 µM; Inhibition [4]: 93%; CC50 [7]: 40.1 µM; Activity [5]: Active; IC50 [33]: 6.7 µM
